For 14 compounds, inhibition, MIC95 and IC50 results are on record in ChEMBL document CHEMBL4196094, “Structure-based design of bacterial transglycosylase inhibitors incorporating biphenyl, amine linker and 2-alkoxy-3-phosphorylpropanoate moieties” (Eur J Med Chem, 2018).

Assay [1] has as its target T1, Penicillin-binding protein 1B (Acinetobacter baumannii) (UniProt G1C7A4).
T1 sequence (whole entry): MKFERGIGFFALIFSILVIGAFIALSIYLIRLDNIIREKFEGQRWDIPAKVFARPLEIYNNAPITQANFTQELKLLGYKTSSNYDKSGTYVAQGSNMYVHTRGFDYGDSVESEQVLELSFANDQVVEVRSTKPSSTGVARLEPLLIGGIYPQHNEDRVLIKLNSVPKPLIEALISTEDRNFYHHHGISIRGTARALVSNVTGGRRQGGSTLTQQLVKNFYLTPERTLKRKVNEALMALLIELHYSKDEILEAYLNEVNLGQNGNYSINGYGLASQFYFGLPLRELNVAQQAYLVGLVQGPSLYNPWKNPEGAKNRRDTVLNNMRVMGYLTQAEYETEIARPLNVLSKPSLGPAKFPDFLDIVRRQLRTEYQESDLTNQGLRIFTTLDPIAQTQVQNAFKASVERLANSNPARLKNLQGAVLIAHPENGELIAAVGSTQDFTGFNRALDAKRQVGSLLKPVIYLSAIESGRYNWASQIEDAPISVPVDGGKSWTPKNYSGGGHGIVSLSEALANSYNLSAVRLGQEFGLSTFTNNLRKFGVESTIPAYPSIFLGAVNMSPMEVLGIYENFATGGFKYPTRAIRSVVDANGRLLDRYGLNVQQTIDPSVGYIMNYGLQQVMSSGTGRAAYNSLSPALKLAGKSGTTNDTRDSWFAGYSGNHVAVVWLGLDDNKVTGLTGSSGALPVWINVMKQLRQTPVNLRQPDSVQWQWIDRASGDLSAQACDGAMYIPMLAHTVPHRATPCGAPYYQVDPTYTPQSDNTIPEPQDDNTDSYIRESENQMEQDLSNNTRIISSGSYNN
Briefly: Inhibition of Acinetobacter baumannii PBP1b transglycosylase activity at 500 uM using NBD-lipid 2 as substrate after 2 hrs by muramidase enzyme coupled HPLC analysis relative to control.

For the next assay, the system named is Staphylococcus aureus. Description: Antibacterial activity against Staphylococcus aureus after 16 to 18 hrs. It is filed as functional.
Assay [2] has as its target T1, Penicillin-binding protein 1B (Acinetobacter baumannii). Description: Inhibition of Acinetobacter baumannii PBP1b transglycosylase activity at 200 uM using NBD-lipid 2 as substrate after 2 hrs by muramidase enzyme coupled HPLC analysis relative to control.
For assay [3], the target named is T2, Penicillin-binding protein 1B (Acinetobacter baumannii, UniProt G1C7A4).
T2 sequence (G1C7A4 whole entry): T1 sequence (whole entry)
Description: Inhibition of Acinetobacter baumannii PBP1b transglycosylase activity using NBD-lipid 2 as substrate after 2 hrs by muramidase enzyme coupled HPLC analysis.

Assay [4] has as its target T1, Penicillin-binding protein 1B (Acinetobacter baumannii). Description: Inhibition of Acinetobacter baumannii PBP1b transglycosylase activity at 1 uM using NBD-lipid 2 as substrate after 2 hrs by muramidase enzyme coupled HPLC analysis relative to control.

Structures are written as SMILES. pIC50: −log10 of the molar value. Values after ≈ are worked out from the molar mass of the structure shown.

For orientation: inhibition means the share of the control response that was lost under treatment. Turning to `CCCCCCCCCCCCn1cc(CO[C@H](CP(=O)(O)OCCCNC(=O)c2ccc(-c3ccccc3)cc2)C(=O)O)nn1`, the inhibition in assay [1] was < 5%.

`CCCCCCCCCCCCn1cc(CO[C@H](CP(=O)(O)OCCCNCc2ccc3ccccc3c2)C(=O)OCC)nn1` had an inhibition in assay [1] of 55%. In the assay with Staphylococcus aureus, the MIC95 stood at 6.3 µM (≈ 4.06 µg/mL).

In the case of `CCCCCCCCCCCCn1cc(CO[C@H](CP(=O)(O)OCCCNC(=O)c2ccc(-c3ccccc3)cc2)C(=O)OCC)nn1`, in assay [1], the inhibition is < 5%.

Compound `CCCCCCCCCCCCn1cc(CO[C@H](CP(=O)(O)OCCCN(Cc2ccc(-c3ccccc3)cc2)C(=O)OC(C)(C)C)C(=O)OCC)nn1` gave an inhibition in assay [1] of 33%.

Take `CCCCCCCCCCCCn1cc(CO[C@H](CP(=O)(O)OCCCN(Cc2ccc(-c3ccccc3)cc2)C(=O)OCC(Cl)(Cl)Cl)C(=O)O)nn1`: the inhibition in assay [1] is < 5%.

What is called pIC50 is −log10 of the IC50, conventionally taken in molar units. Low readings indicate a high IC50, high ones a low IC50. Turning to `CCCCCCCCCCCCn1cc(CO[C@H](CP(=O)(O)OCCCN(C)Cc2ccc(-c3ccccc3)cc2)C(=O)OCC)nn1`, the inhibition in assay [2] was found to be 99%. This compound showed a pIC50 in assay [3] of 3.82. The compound also showed an MIC95 in the assay with Staphylococcus aureus of 6.3 µM (≈ 4.31 µg/mL).

As to `CCCCCCCCCCCCn1cc(CO[C@H](CP(=O)(O)OCCCNCc2ccc(-c3ccccc3)cc2)C(=O)O)nn1`, in assay [1], the inhibition was 13%.

For the compound `CC1(C)S[C@@H]2[C@H](NC(=O)[C@H](N)c3ccccc3)C(=O)N2[C@H]1C(=O)O` [AMPICILLIN], the MIC95 with Staphylococcus aureus worked out at 1.4 µM (≈ 0.489 µg/mL).

In turn, `CCCCCCCCCCCCn1cc(CO[C@H](CP(=O)(O)OCCCN(Cc2ccc(-c3ccccc3)cc2)C(=O)OCC(Cl)(Cl)Cl)C(=O)OCC)nn1` yielded an inhibition in assay [1] of 70%.

For `CCCCCCCCCCCCn1cc(CO[C@H](CP(=O)(O)OCCCNCc2ccc(-c3ccccc3)cc2)C(=O)OCC)nn1`, the inhibition in assay [1] was 90%; in assay [2], 34%. This compound also gave a pIC50 in assay [3] of 3.63. The same compound showed an MIC95 in the assay on Staphylococcus aureus of 6.3 µM (≈ 4.23 µg/mL).

Take `CCCCCCCCCCCCn1cc(CO[C@H](CP(=O)(O)OCCCNCc2ccc3ccccc3c2)C(=O)O)nn1`: in assay [1], the inhibition was 48%.

In assay [2], `CCCCCCCCCCCCn1cc(CO[C@H](CP(=O)(O)OCCNCc2ccc(-c3ccccc3)cc2)C(=O)OCC)nn1` displayed an inhibition of 99%. In assay [3], the pIC50 is 3.80. In addition, the MIC95 with Staphylococcus aureus turned out to be 6.3 µM (≈ 4.14 µg/mL).

Compound `CCCCCCCCCCCCn1cc(CO[C@H](CP(=O)(O)OCCCN(Cc2ccc(-c3ccccc3)cc2)Cc2ccc(-c3ccccc3)cc2)C(=O)OCC)nn1` showed an inhibition in assay [2] of 99%. This compound showed a pIC50 in assay [3] of 4.06. In addition, the MIC95 with Staphylococcus aureus is > 400 µM.

`C=C(C/C=C(\C)CCC=C(C)C)CCC(C)(C)/C=C/CC/C(C)=C\CO[C@H](COP(=O)(O)O[C@H]1O[C@H](C(N)=O)[C@@](C)(O)[C@H](OC(N)=O)[C@H]1O[C@@H]1O[C@H](CO[C@@H]2O[C@H](CO)[C@@H](O)[C@H](O)[C@H]2O)[C@@H](O[C@@H]2O[C@H](C)[C@@H](O[C@@H]3O[C@H](C(=O)NC4=C(O)CCC4=O)[C@H](O)[C@H](O)[C@H]3O)[C@H](O)[C@H]2NC(C)=O)[C@H](O)[C@H]1NC(C)=O)C(=O)O` had an inhibition in assay [4] of 100%.
